Test results published in patent publication US9440950B2, “Arginine methyltransferase inhibitors and uses thereof” (Epizyme, Inc., priority 2013, dated 2016).

Target: T1, human PRMT1 (Homo sapiens, UniProt Q99873)
T1 construct: GST-tagged PRMT1; made in house; host or cells: High Five insect cells (baculovirus, pFastBacI)
Assay: PRMT1 Biochemical Assay
Conditions: peptide substrate, 3H-SAM Flashplate assay
From the text: S-adenosylmethionine (SAM), S-adenosylhomocysteine (SAH), bicine, Tween20, dimethylsulfoxide (DMSO), bovine skin gelatin (BSG), and Tris(2-carboxyethyl)phosphine hydrochloride solution (TCEP) were purchased from Sigma-Aldrich at the highest level of purity possible. ^3H-SAM was purchase from American Radiolabeled Chemicals with a specific activity of 80 Ci/mmol. 384-well streptavidin Flashplates were purchased from PerkinElmer.
Peptide representative of human histone H4 residues 36-50 was synthesized with an N-terminal linker-affinity tag motif and a C-terminal amide cap by 21st Century Biochemicals. The peptide was purified by high-performance liquid chromatography (HPLC) to greater than 95% purity and confirmed by liquid chromatography mass spectrometry (LC-MS). The sequence was Biot-Ahx-[…]-amide (SEQ ID NO.: 1).
Full-length human PRMT1 isoform 1 (NM_001536.5) transcript clone was amplified from an HEK 293 cDNA library, incorporating flanking 5′ sequence encoding a FLAG tag ([…]) (SEQ ID NO.:2) fused directly to Met 1 of PRMT1. The amplified gene was subcloned into pFastBacI (Life Technologies) modified to encode an N-terminal GST tag and a TEV cleavage sequence ([…] […] […] […])(SEQ ID NO.:3) fused to Asp of the Flag tag of PRMT1.
Recombinant baculovirus were generated according to Bac-to-Bac kit instructions (Life Technologies). Protein over-expression was accomplished by infecting exponentially growing High Five insect cell culture at 1.5×10^6 cell/ml with 1:100 ratio of virus. Infections were carried out at 27° C. for 48 hours, harvested by centrifugation, and stored at −80° C. for purification.
GST-tagged PRMT1 was eluted with 50 mM Tris, 2 mM glutathione, pH 7.8, dialysed in buffer A and concentrated to 1 mg/mL. The purity of recovered protein was 73%. Reference: Wasilko, D. J. and S. E. Lee: “TIPS: titerless infected-cells preservation and scale-up” Bioprocess J., 5 (2006), pp. 29-32.
General Procedure for PRMT1 Enzyme Assays on Peptide Substrates.
The assays were all performed in a buffer consisting of 20 mM Bicine (pH=7.6), 1 mM TCEP, 0.005% BSG, and 0.002% Tween 20, prepared on the day of use. Compounds in 100% DMSO (1 ul) were spotted into a polypropylene 384-well V-bottom plates (Greiner) using a Platemate Plus outfitted with a 384-channel head (Thermo Scientific). DMSO (1 ul) was added to Columns 11, 12, 23, 24, rows A-H for the maximum signal control and 1 ul of SAH, a known product and inhibitor of PRMT1, was added to columns 11, 12, 23, 24, rows I-P for the minimum signal control. A cocktail (40 ul) containing the PRMT1 enzyme was added by Multidrop Combi (Thermo-Fisher). The compounds were allowed to incubate with PRMT1 for 30 min at room temperature, then a cocktail (10 ul) containing SAM and peptide was added to initiate the reaction (final volume=51 ul). The final concentrations of the components were as follows: PRMT1 was 0.5 nM, ^3H-SAM was 200 nM, non-radiolabeled SAM was 1.5 uM, peptide was 20 nM, SAH in the minimum signal control wells was 1 mM, and the DMSO concentration was 2%. The assays were stopped by the addition of non-radiolabeled SAM (10 ul) to a final concentration of 300 uM, which dilutes the ^3H-SAM to a level where its incorporation into the peptide substrate is no longer detectable. 50 ul of the reaction in the 384-well polypropylene plate was then transferred to a 384-well Flashplate and the biotinylated peptides were allowed to bind to the streptavidin surface for at least 1 hour before being washed once with 0.1% Tween20 in a Biotek ELx405 plate washer. The plates were then read in a PerkinElmer TopCount plate reader to measure the quantity of ^3H-labeled peptide bound to the Flashplate surface, measured as disintegrations per minute (dpm) or alternatively, referred to as counts per minute (cpm).
Where dpm=disintegrations per minute, cmpd=signal in assay well, and min and max are the respective minimum and maximum signal controls. […]

T1 sequence (Q99873 with tags, fused parts or gaps): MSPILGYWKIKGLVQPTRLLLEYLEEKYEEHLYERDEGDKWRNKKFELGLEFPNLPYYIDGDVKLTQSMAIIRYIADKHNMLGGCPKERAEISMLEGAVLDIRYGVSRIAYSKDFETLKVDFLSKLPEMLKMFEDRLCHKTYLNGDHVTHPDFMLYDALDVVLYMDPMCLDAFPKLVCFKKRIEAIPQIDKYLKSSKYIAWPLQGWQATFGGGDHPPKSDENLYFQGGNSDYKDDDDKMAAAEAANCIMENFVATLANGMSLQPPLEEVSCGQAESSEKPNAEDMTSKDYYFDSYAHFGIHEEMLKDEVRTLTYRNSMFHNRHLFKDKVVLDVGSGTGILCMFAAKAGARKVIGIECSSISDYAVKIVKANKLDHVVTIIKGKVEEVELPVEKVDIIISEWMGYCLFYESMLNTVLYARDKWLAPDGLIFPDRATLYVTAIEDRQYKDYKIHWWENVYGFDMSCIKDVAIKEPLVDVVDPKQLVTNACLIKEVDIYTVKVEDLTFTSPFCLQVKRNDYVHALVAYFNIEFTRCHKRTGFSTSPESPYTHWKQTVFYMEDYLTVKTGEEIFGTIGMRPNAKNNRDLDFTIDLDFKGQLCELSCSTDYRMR

Question: `CN(CCN)Cc1c[nH]nc1-c1cncc(S(C)(=O)=O)c1` [Compound 4] was tested. Which IC50 did it give?
Answer: 1010 to 3000 nM

Question: How did the IC50 turn out when `COc1ccc(-c2n[nH]cc2CN(C)CCN)cn1` [Compound 5] was run?
Answer: 101 to 1000 nM

Question: Which IC50 does the source give for `Cc1cncc(-c2n[nH]cc2CN(C)CCN)c1` [Compound 6] here?
Answer: ≥ 10000 nM

Question: Which IC50 does the source give for `CN(CCN)Cc1c[nH]nc1-c1cncc(F)c1` [Compound 7] here?
Answer: ≤ 100 nM

Question: How did the IC50 turn out when `CN(CCN)Cc1c[nH]nc1-c1cccnc1` [Compound 8] was run?
Answer: 101 to 1000 nM

Question: Which IC50 does the source give for `CN(CCN)Cc1c[nH]nc1-c1ccncc1` [Compound 9] here?
Answer: ≤ 100 nM

Question: For `Cc1cc(-c2n[nH]cc2CN(C)CCN)cnc1Cl` [Compound 10], which IC50 is on record?
Answer: ≤ 100 nM

Question: Which IC50 does the source give for `COc1cc(-c2n[nH]cc2CN(C)CCN)ccn1` [Compound 11] here?
Answer: 101 to 1000 nM

Question: `COc1cc(-c2n[nH]cc2CN(C)CCN)c(Cl)cn1` [Compound 12] was tested. Which IC50 did it give?
Answer: 1010 to 3000 nM

Question: Which IC50 does the source give for `CN(CCN)Cc1c[nH]nc1-c1ccc(C(F)(F)F)nc1` [Compound 13, N^1-methyl-N^1-((3-(6-(trifluoromethyl)pyridin-3-yl)-1H-pyrazol-4-yl)methyl)ethane-1,2-diamine] here?
Answer: ≤ 100 nM

Question: With `COc1ncc(Cl)cc1-c1n[nH]cc1CN(C)CCN` [Compound 14] as the compound, how does the IC50 read?
Answer: 1010 to 3000 nM

Question: For `COc1ncccc1-c1n[nH]cc1CN(C)CCN` [Compound 15], which IC50 is on record?
Answer: 101 to 1000 nM

Question: With `COc1ccncc1-c1n[nH]cc1CN(C)CCN` [Compound 16] as the compound, how does the IC50 read?
Answer: 101 to 1000 nM

Question: How did the IC50 turn out when `Cc1ccncc1-c1n[nH]cc1CN(C)CCN` [Compound 17] was run?
Answer: 101 to 1000 nM

Question: Which IC50 does the source give for `CN(CCN)Cc1c[nH]nc1-c1cncc(C#N)c1` [Compound 18] here?
Answer: 101 to 1000 nM

Question: `CN(CCN)Cc1c[nH]nc1-c1cncc(Cl)c1` [Compound 19] was tested. Which IC50 did it give?
Answer: ≤ 100 nM

Question: Which IC50 does the source give for `CN(CCN)Cc1c[nH]nc1-c1ccc(N2CCOCC2)nc1` [Compound 20] here?
Answer: ≤ 100 nM

Question: For `CC(C)CN(C)c1ccc(-c2n[nH]cc2CN(C)CCN)cn1` [Compound 21], which IC50 is on record?
Answer: ≤ 100 nM

Question: `CC(C)Oc1ccc(-c2n[nH]cc2CN(C)CCN)cn1` [Compound 22] was tested. Which IC50 did it give?
Answer: ≤ 100 nM

Question: For `CN(CCN)Cc1c[nH]nc1-c1ccc(N(C)Cc2ccccc2)nc1` [Compound 23], which IC50 is on record?
Answer: ≤ 100 nM

Question: With `CCN(CC)c1ccc(-c2n[nH]cc2CN(C)CCN)cn1` [Compound 24] as the compound, how does the IC50 read?
Answer: 101 to 1000 nM

Question: How did the IC50 turn out when `CN(CCN)Cc1c[nH]nc1-c1ccc(NCc2ccccc2)nc1` [Compound 25] was run?
Answer: ≤ 100 nM

Question: How did the IC50 turn out when `CC(C)CNc1ccc(-c2n[nH]cc2CN(C)CCN)cn1` [Compound 26] was run?
Answer: ≤ 100 nM

Question: `CN(CCN)Cc1c[nH]nc1-c1ccccn1` [Compound 27] was tested. Which IC50 did it give?
Answer: 3010 to 10000 nM

Question: `CN(CCN)Cc1c[nH]nc1-c1ccc(C#N)nc1` [Compound 28, 5-(4-(((2-aminoethyl)(methyl)amino)methyl)-1H-pyrazol-3-yl)picolinonitrile] was tested. Which IC50 did it give?
Answer: ≤ 100 nM

Question: For `CN(CCN)Cc1c[nH]nc1-c1cnccc1C(F)(F)F` [Compound 29], which IC50 is on record?
Answer: 1010 to 3000 nM

Question: With `CNCCN(C)Cc1c[nH]nc1-c1ccc(N(C)CCC(C)C)nc1` [Compound 30] as the compound, how does the IC50 read?
Answer: ≤ 100 nM

Question: Which IC50 does the source give for `CNCCN(C)Cc1c[nH]nc1-c1ccc(N(CC(C)C)CC(C)C)nc1` [Compound 31] here?
Answer: ≤ 100 nM

Question: With `CNCCN(C)Cc1c[nH]nc1-c1ccc(N(C)CC(C)C)nc1` [Compound 32, N^1-((3-(6-(isobutyl(methyl)amino)pyridin-3-yl)-1H-pyrazol-4-yl)methyl)-N^1,N^2-dimethylethane-1,2-diamine] as the compound, how does the IC50 read?
Answer: ≤ 100 nM

Question: Which IC50 does the source give for `CNCCN(C)Cc1c[nH]nc1-c1ccc(N(C)C(C)C)nc1` [Compound 33, N^1-((3-(6-(isopropyl(methyl)amino)pyridin-3-yl)-1H-pyrazol-4-yl)methyl)-N^1,N^2-dimethylethane-1,2-diamine] here?
Answer: ≤ 100 nM

Question: With `CCN(CCC(C)C)c1ccc(-c2n[nH]cc2CN(C)CCNC)cn1` [Compound 34, N^1-((3-(6-(ethyl(isopentyl)amino)pyridin-3-yl)-1H-pyrazol-4-yl)methyl)-N^1,N^2-dimethylethane-1,2-diamine] as the compound, how does the IC50 read?
Answer: ≤ 100 nM

Question: Which IC50 does the source give for `CNCCN(C)Cc1c[nH]nc1-c1ccc(OCC(C)C)nc1` [Compound 35, N^1-((3-(6-iso-butoxypyridin-3-yl)-1H-pyrazol-4-yl)methyl)-N^1,N^2-dimethylethane-1,2-diamine] here?
Answer: ≤ 100 nM

Question: For `CCN(CC(C)C)c1ccc(-c2n[nH]cc2CN(C)CCNC)cn1` [Compound 36], which IC50 is on record?
Answer: ≤ 100 nM
